These are literature values, as cited in US12453729B2, “Pharmaceutical formulations” (AstraZeneca AB, priority 2020, dated 2025).

Data set [1] concerns the target T1, ERα receptor (Homo sapiens, UniProt P03372).
T1 sequence (P03372 1-595): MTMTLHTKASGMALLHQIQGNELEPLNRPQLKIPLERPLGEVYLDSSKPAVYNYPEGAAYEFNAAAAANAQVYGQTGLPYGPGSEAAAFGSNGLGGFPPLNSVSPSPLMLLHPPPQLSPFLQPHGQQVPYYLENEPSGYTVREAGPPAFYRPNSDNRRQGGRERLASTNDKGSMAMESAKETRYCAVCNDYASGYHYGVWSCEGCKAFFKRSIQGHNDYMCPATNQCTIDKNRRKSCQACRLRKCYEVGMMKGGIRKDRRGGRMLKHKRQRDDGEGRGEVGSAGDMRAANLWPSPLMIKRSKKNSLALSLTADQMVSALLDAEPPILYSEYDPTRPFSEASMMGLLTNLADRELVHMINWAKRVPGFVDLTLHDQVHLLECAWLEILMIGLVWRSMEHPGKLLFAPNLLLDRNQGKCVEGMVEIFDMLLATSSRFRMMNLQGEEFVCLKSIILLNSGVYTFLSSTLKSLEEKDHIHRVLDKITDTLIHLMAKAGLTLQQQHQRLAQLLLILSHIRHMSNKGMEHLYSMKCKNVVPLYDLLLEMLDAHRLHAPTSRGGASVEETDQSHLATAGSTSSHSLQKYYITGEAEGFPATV
Conditions: patient samples; 500 mg monthly dose.

The target of data set [2] is T1, ERα receptor. The settings on record: in vitro breast cancer cell line experiments.

Consider `C[C@]12CC[C@@H]3c4ccc(O)cc4C[C@@H](CCCCCCCCC[S+]([O-])CCCC(F)(F)C(F)(F)F)[C@H]3[C@@H]1CC[C@@H]2O` (some centres unmarked) [Fulvestrant], for which the “turnover of the receptor” value in data set [1] is given as “less than 50%”. Moreover, the “down-regulation of the receptor” value in data set [2] was “complete down-regulation”.
